This note sets out measurements from ChEMBL document CHEMBL1777672, “Synthesis and antifungal activities of natural and synthetic biflavonoids” (2011).

In brackets after ≈: the same amount, converted by molar mass. Activity calls are given as the source filed them. No cut-off for these calls is given here.

The test system of test [1] is Fusarium solani. Kind of test: Antifungal activity against Fusarium solani ATCC 36031 after 48 hrs by agar diffusion bioautography method. The test is classed as functional, organism-based. For orientation: In agar diffusion tests the substance spreads into inoculated agar from a disc or well.
Test [2] concerns Aspergillus niger. Kind of test: Antifungal activity against Aspergillus niger ATCC 16404 after 48 hrs by agar diffusion bioautography method. The test is classed as functional, organism-based.
The test system of test [3] is Candida albicans. Kind of test: Antifungal activity against Candida albicans ATCC 90028 after 48 hrs by agar diffusion bioautography method. The test is classed as functional, organism-based.
Test [4] deals with Candida parapsilosis. Nature of the test: Antifungal activity against Candida parapsilosis ATCC 22019 after 48 hrs by agar diffusion bioautography method. The format is functional, organism-based.
The subject of test [5] is Cryptococcus neoformans. Nature of the test: Antifungal activity against Cryptococcus neoformans ATCC 14116 after 72 hrs by agar diffusion bioautography method. The test is classed as functional, organism-based.
A short description of test [6]: Antifungal activity against Rhizopus stolonifer (+) ATCC 6227b after 48 hrs by agar diffusion bioautography method. The format is functional.
For test [7], the system named is Aspergillus oryzae. Nature of the test: Antifungal activity against Aspergillus oryzae ATCC 10124 after 48 hrs by agar diffusion bioautography method. The test is classed as functional, organism-based.
The test system of test [8] is Candida parapsilosis. Kind of test: Antifungal activity against Candida parapsilosis ATCC 22019 after 48 hrs by broth microdilution technique. The format is functional. Particulars: Lodderomyces parapsilosis, ATCC 22019, 48 h. In general terms: In broth dilution the organism is exposed to a series of concentrations in liquid medium.
Test [9] has as its system Aspergillus niger. Kind of test: Antifungal activity against Aspergillus niger ATCC 16404 after 48 hrs by broth microdilution technique. Particulars: ATCC 16404, 48 h. The test is classed as functional.
The subject of test [10] is Candida albicans. Nature of the test: Antifungal activity against Candida albicans ATCC 90028 after 48 hrs by broth microdilution technique. The test is classed as functional. Particulars: ATCC 90028, 48 h.
Test [11] is described as follows: Antifungal activity against Rhizopus stolonifer (+) ATCC 6227b after 48 hrs by broth microdilution technique. The test is classed as functional.
The subject of test [12] is Cryptococcus neoformans. Kind of test: Antifungal activity against Cryptococcus neoformans ATCC 14116 after 72 hrs by broth microdilution technique. Particulars: ATCC 14116, 72 h. The test is classed as functional.

Regarding `C[C@@H]1[C@H](O)[C@@H](C)/C=C/C=C/C=C/C=C/C=C/C=C/C=C/[C@H](O[C@@H]2O[C@H](C)[C@@H](O)[C@H](N)[C@@H]2O)C[C@@H]2O[C@](O)(C[C@@H](O)C[C@@H](O)[C@H](O)CC[C@@H](O)C[C@@H](O)CC(=O)O[C@H]1C)C[C@H](O)[C@H]2C(=O)O`, the outcome in test [1], in test [2], in [3], in test [4], in test [5] and in test [6] was Active. Besides, in test [7], the result was Active.
In test [8], `O=c1cc(-c2ccc(O)cc2)oc2ccccc12` registered an MIC of 200 µM (≈ 47.6 µg/mL).
For the compound `O=C1CC(c2ccccc2-c2ccccc2C2CC(=O)c3ccc(O)cc3O2)Oc2cc(O)ccc21` (configuration not stated), the outcome in test [1], in test [2], in test [3], in test [4], in [5] and in [6] was inactive. Moreover, the outcome in test [7] was inactive.
On to `O=C(/C=C/c1ccc(OCc2ccccc2)c(-c2cc(/C=C/C(=O)c3c(O)cc(OCc4ccccc4)cc3OCc3ccccc3)ccc2OCc2ccccc2)c1)c1c(O)cc(OCc2ccccc2)cc1OCc1ccccc1`, for which the outcome in test [1], in test [2], in test [3], in [4], in [5] and in test [6] was inactive. For the same compound, in [7], the result was inactive.
For the compound `O=C1CC(c2ccc(O)c(-c3cc(C4CC(=O)c5ccc(O)cc5O4)ccc3O)c2)Oc2cc(O)ccc21` (configuration not stated), it took 200 µM (≈ 102 µg/mL) to inhibit growth in test [9] (MIC). Further, the outcome in test [1], in test [3], in test [4], in test [5], in [6] and in test [7] was inactive. In addition, the outcome in [2] was Active.
`O=c1cc(-c2ccc(O)cc2)oc2cc(O)cc(O)c12` [APIGENIN] yielded a minimal inhibitory concentration (MIC) in [9] of 6 µM (≈ 1.62 µg/mL).
Turning to `O=C(/C=C/c1ccc(O)c(-c2cc(/C=C/C(=O)c3c(O)cc(O)cc3O)ccc2O)c1)c1c(O)cc(O)cc1O`, the result in test [1], in [2], in test [4] and in [7] was inactive. In addition, the outcome in test [3], in test [5] and in test [6] was Active. The MIC in [10] was 800 µM (≈ 434 µg/mL); in [11], 200 µM (≈ 108 µg/mL); in [12], 13 µM (≈ 7.05 µg/mL).
In the case of `O=C1C[C@@H](c2ccc(O)c(-c3cc([C@@H]4CC(=O)c5c(O)cc(O)cc5O4)ccc3O)c2)Oc2cc(O)cc(O)c21`, the outcome in [1], in [2], in [3], in test [4], in [5] and in test [6] was inactive. In test [7], the result was inactive.
For `O=C1CC(c2ccc(OCc3ccccc3)c(-c3cc(C4CC(=O)c5c(O)cc(OCc6ccccc6)cc5O4)ccc3OCc3ccccc3)c2)Oc2cc(OCc3ccccc3)cc(O)c21` (configuration not stated), the result in [1], in test [2], in test [4], in [5], in test [6] and in [7] was inactive. For the same compound, the result in [3] was Active. In [10], this compound had an MIC of more than 800 µM.
In the case of `O=c1c(O)c(-c2ccc(O)c(-c3cc(-c4oc5cc(O)cc(O)c5c(=O)c4O)ccc3O)c2)oc2cc(O)cc(O)c12`, the outcome in [1], in [2], in [3], in [4], in test [5] and in test [6] was inactive. Besides, in test [7], the outcome was inactive.
Regarding `O=C1CC(c2ccc(OCc3ccccc3)c(-c3cc(C4CC(=O)c5ccc(OCc6ccccc6)cc5O4)ccc3OCc3ccccc3)c2)Oc2cc(OCc3ccccc3)ccc21` (configuration not stated), the outcome in test [1], in test [2], in test [3], in [4], in test [5] and in test [6] was inactive. In test [7], the outcome was inactive.
For `O=c1cc(-c2ccccc2-c2ccccc2-c2cc(=O)c3ccccc3o2)oc2ccccc12`, the MIC in test [9] was more than 800 µM; in [11] it was 800 µM (≈ 354 µg/mL). The result in test [1], in [3], in [4], in test [5] and in [7] was inactive. For the same compound, the outcome in test [2] and in test [6] was Active.
In the case of `O=C(/C=C/c1ccccc1)c1ccc(OCc2ccccc2)cc1O`, the MIC in [9] is 100 µM (≈ 33 µg/mL); in test [12], more than 800 µM.
As for `COc1ccc(-c2cc(=O)c3c(OC)cc(OC)cc3o2)cc1` [TRIMETHYLAPIGENIN], the MIC in test [9] is more than 800 µM.
In [9], `COc1cc(O)c(C(=O)/C=C/c2ccc(OC)c(-c3cc(/C=C/C(=O)c4c(O)cc(OC)cc4OC)ccc3OC)c2)c(OC)c1` displayed an MIC of 13 µM (≈ 8.15 µg/mL). For the same compound, the result in test [1], in test [3], in test [4], in [5], in test [6] and in test [7] was inactive. In addition, the outcome in test [2] was Active.
Regarding `O=C1CC(c2ccccc2-c2ccccc2C2CC(=O)c3ccc(OCc4ccccc4)cc3O2)Oc2cc(OCc3ccccc3)ccc21` (configuration not stated), the outcome in test [1], in test [2], in test [3], in test [4], in [5] and in test [6] was inactive. In addition, the result in test [7] was inactive.
Regarding `O=C(/C=C/c1ccccc1-c1ccccc1/C=C/C(=O)c1ccc(OCc2ccccc2)cc1O)c1ccc(OCc2ccccc2)cc1O`, the MIC in test [9] and in test [12] was more than 800 µM in each case. Besides, the outcome in test [1], in test [3], in test [4], in test [6] and in [7] was inactive. For the same compound, the outcome in test [2] and in test [5] was Active.
Take `O=C(/C=C/c1ccc(O)cc1)c1c(O)cc(O)cc1O` [4,2',4',6'-TETRAHYDROXYCHALCONE]: the MIC in [10] was more than 800 µM; in [11], 800 µM (≈ 218 µg/mL); in test [12], 400 µM (≈ 109 µg/mL).
Take `O=c1cc(-c2ccc(O)c(-c3cc(-c4cc(=O)c5c(O)cc(O)cc5o4)ccc3O)c2)oc2cc(O)cc(O)c12`: it took 100 µM (≈ 53.8 µg/mL) to inhibit growth in test [9] (MIC). In addition, the outcome in test [1], in test [3], in test [4], in [5], in test [6] and in test [7] was inactive. In addition, in test [2], the outcome was Active.
`O=C1CC(c2ccc(O)cc2)Oc2cc(O)ccc21` (configuration not stated) displayed an MIC in test [9] of more than 800 µM.
Take `COc1cc(OC)c2c(=O)cc(-c3ccc(OC)c(-c4cc(-c5cc(=O)c6c(OC)cc(OC)cc6o5)ccc4OC)c3)oc2c1`: the MIC in [9] worked out at 400 µM (≈ 249 µg/mL). The outcome in test [1], in test [3], in [4], in [5], in test [6] and in [7] was inactive. Also, in test [2], the outcome was Active.
Take `O=C1CC(c2ccc(OCc3ccccc3)cc2)Oc2cc(OCc3ccccc3)cc(O)c21` (configuration not stated): the MIC in test [10] is more than 800 µM.
For the compound `COc1ccc(-c2cc(=O)c3cc(-c4ccc5oc(-c6ccc(OC)cc6)cc(=O)c5c4)ccc3o2)cc1`, the result in [1], in [2], in [3], in test [4], in test [5] and in [6] was inactive. Besides, the outcome in [7] was inactive.
As for `O=C(/C=C/c1ccc(OCc2ccccc2)c(-c2cc(/C=C/C(=O)c3ccc(OCc4ccccc4)cc3O)ccc2OCc2ccccc2)c1)c1ccc(OCc2ccccc2)cc1O`, the outcome in [1], in test [2], in [3], in test [4], in [6] and in test [7] was inactive. In addition, in test [5], the outcome was Active.
In turn, `COc1ccc(/C=C/C(=O)c2c(O)cc(OC)cc2OC)cc1` [FLAVOKAWAIN A] returned an MIC in test [9] of more than 800 µM.

The term MIC denotes the least concentration at which growth counts as inhibited. A lower MIC goes with a more susceptible organism.
